For data set [1] the following is noted: in vivo, po; cited from earlier work.
The nature of data set [2]: Solubility of oxymorphone in adhesive systems. In kind it is physicochemical. To be noted: in general. The text has this:
A variety of adhesive systems, enhancers and cosolvents were employed to observe permeation differences within these systems. In general, solubility in acrylic adhesives (i.e. Duro-Tak®) was higher, and thus the driving force out of the patch would be relatively lower. Solubility in silicone adhesives was lower and thus provided a much higher driving constant out of the formulation and into the skin; however, due to the relatively lower solubility, a solubility enhancer that also assisted in solubilising the skin was utilized.

Regarding `COc1ccc2c3c1O[C@H]1C(=O)CC[C@H]4[C@@H](C2)N(C)CC[C@]314` [Hydrocodone], the Bioavailability in data set [1] was 80%.
Take `COc1ccc2c3c1O[C@H]1C(=O)CC[C@@]4(O)[C@@H](C2)N(C)CC[C@]314` [Oxycodone]: the Bioavailability in data set [1] was 87%.
On to `CN1CC[C@]23c4c5ccc(O)c4O[C@H]2C(=O)CC[C@@]3(O)[C@H]1C5` [Oxymorphone], for which the Bioavailability in data set [1] is 10%. Besides, the “Solubility in silicone adhesives” value in data set [2] (compared with acrylic adhesives) is “lower”. Further, the “solubility in acrylic adhesives (i.e. Duro-Tak®)” value in data set [2] (compared with silicone adhesives) was “higher”.

These data come from US10071090B2 (priority 2014, dated 2018).
